The source of these data is patent publication EP0753308A2, “Use of lactoferrin for therapy of acute or recurrent infectious diseases by streptococcus pyogenes or other intracellular gram positive pathogen bacteria” (priority 1995, dated 1997).

The subject of one assay is S. pyogenes 95/1. Kind of assay: Invasion assay in HeLa cell monolayers (gentamicin protection, CFU of viable intracellular bacteria). The following applies: control 5 x 10^5; for Internalized bacteria (CFU/ml): absence of lactoferrin. The assay is classed as cell-based, Streptococcus pyogenes. As to the method: (§1) Streptococcus pyogenes strain 95/1 was cultured in Todd-Hewitt broth (Difco lab.). Blood agar was used for counting coloning forming units (C.F.U.). Staphylococcus aureus strain 94/3 was cultured in Brain Hearth Infusion (BHI). Mannitol Salt Agar was used for C.F.U. counts. HeLa S3 human epitelial cells (derived from epithelioid carcinoma of human cervix) were grown as monolayers at 37°C in Eagle's MEM containing 1.2 g/l of NaCo3, 2 mM glutamine, 100 U/ml penicillin, 0.1 mg/ml streptomycin and 10% heat inactivated foetal calf serum in 5% CO2 on 24-well tissue culture clusters (costar) by loading 1 ml of a solution of 1.5x10^5 cells/ml.
(§2) Semiconfluent monolayers of HeLa cells were infected with a bacterial suspension (at a multiplicity of infection of 100 exponentially grown bacteria per cell) deriving from a bacterial subculture after an incubation at 37°C for 120 min in the presence and absence of lactoferrin added at no cytotoxic nor antibacterial concentrations. After the bacterial infection (2 h at 37°C ), the monolayer was five-fold carefully washed with fosfate buffered saline (PBS) and then fresh medium (MEM, Seromed) containing 200 ug/ml of gentamicin was added. This antibiotic is well known for its impossibility to penetrate into the eukaryotic cells and to exert its bactericidal effect only towards the extracellular bacteria (free or adhered to the cells). Alter 2 h incubation period at 37°C in gentamicin, the infected cells were whashed three times with PBS and lysed by the addition of cold 0.1% Triton-X 100.
The cellular lysate was diluited with PBS and plated on selective agar medium in order to determine viable intracellular bacteria.

Another assay has as its system S. aureus. The assay is described as above. The assay is classed as cell-based, Staphylococcus aureus. The following applies: proteins 1 mg/ml; erythromycin 0.02 mg/ml where present; control 7 x 10^5. How it is done:
as §1
as §2, with “Alter 2 h incubation period at 37°C in gentamicin, the infected cells were whashed three times with PBS and lysed by the addition of cold 0.1% Triton-X 100.” left out

With `CC1(C)S[C@@H]2[C@H](NC(=O)[C@H](N)c3ccccc3)C(=O)N2[C@H]1C(=O)O` [Ampicillin, ampicillin], the “Internalized bacteria (CFU/ml)” value with S. pyogenes 95/1 (bacteria cultured with subinhibiting antibiotic 0.1 ug/ml) is reported as 2 x 10^5 CFU/ml.

Take `CC[C@H]1OC(=O)[C@H](C)[C@@H](O[C@H]2C[C@@](C)(OC)[C@@H](O)[C@H](C)O2)[C@H](C)[C@@H](O[C@@H]2O[C@H](C)C[C@H](N(C)C)[C@H]2O)[C@](C)(O)C[C@@H](C)C(=O)[C@H](C)[C@@H](O)[C@]1(C)O` [Erythromycin, erythromycin]: in the assay with S. aureus, the “Intracellular bacteria (CFU/ml S. aureus)” value is 3 x 10^5 CFU/ml. In addition, the “Internalized bacteria (CFU/ml)” value with S. pyogenes 95/1 (bacteria cultured with subinhibiting antibiotic 20 ug/ml) was 2 x 10^5 CFU/ml. Also, in the assay on S. pyogenes 95/1 (proteins 1 mg/ml, erythromycin 0.02 mg/ml where present), the “Intracellular bacteria (CFU/ml S. pyogenes)” value was 2 x 10^5 CFU/ml.
